Reference: patent US4739050A, “2-phenyl-1,4-benzothiazin-3-one derivatives” (Santen Pharmaceutical Co., Ltd., priority 1985, dated 1988)
Counter-ions that a name gives are not always drawn.

Each compound was assayed on guinea-pig teania coli (assay: Pharmacological test I: calcium-antagonistic activity, inhibition of Ca++-induced contraction of isolated guinea-pig teania coli). Conditions: Cavia porcellus, 5 min, Ca++-free-high-K Krebs, 5 min exposure before CaCl2 (3×10^-4 M), 32° C., read-out: Calcium-antagonistic activity IC50 (concentration eliciting 50% inhibition of Ca++-induced contraction).
Procedure: The action potentials on the smooth muscles of uterus, teania coli and portal vein are dependent on calcium ion, and therefore these smooth muscle preparations are useful for screening of calcium antagonists. We measured the calcium-antagonistic activity of the compounds by the method using guinea-pig teania coli preparation.
Isolated guinea-pig teania coli was suspended in a organ bath filled with Krebs solution at 32° C. and bubbled with 5% carbon dioxide in oxygen. After equilibration, the muscle was washed with Ca^++ -free Krebs solution, and when the muscle had relaxed to the basal level, it was suspended in Ca^++ -free-high-K Krebs solution.
The muscle was exposed to test compounds for 5 minutes before addition of CaCl2, and the contraction induced by CaCl2 (3×10^-4 M) was recorded isotonically. The calcium-antagonistic activity was represented by the concentration of test compound which elicited 50% inhibition of Ca^++ -induced contraction (IC50).

Compound	IC50
COc1ccc(OC)c(C2(CCCN(C)C3CCCCC3)Sc3ccccc3N(C)C2=O)c1 (centres unmarked) [compound 80, 3,4-Dihydro-2-(2,5-dimethoxyphenyl)-4-methyl-2-[3-(N-methylcyclohexylamino)propyl]-3-oxo-2H-1,4-benzothiazine oxalate]	710 nM
COc1ccc(OC)c(C2(CCCN(C)CCc3cc(OC)c(OC)c(OC)c3)Sc3ccccc3N(C)C2=O)c1 (centres unmarked) [compound 83, 3,4-Dihydro-2-(2,5-dimethoxyphenyl)-4-methyl-2-[3-(N-methyl-3,4,5-trimethoxyphenethylamino)propyl[-3-oxo-2H-1,4-benzothiazine oxalate]	860 nM
COc1ccc(CCN(C)CCCCOc2ccc(C3(SC)Sc4ccccc4N(C)C3=O)cc2)cc1OC (centres unmarked) [compound 103, 3,4-Dihydro-4-methyl-2-[4-[4-(N-methyl-3,4-dimethoxyphenethylamino)butoxy]phenyl]-2-methylthiol-3-oxo-2H-1,4l-benzothiazine hydrochloride]	530 nM
COc1ccc(OCCCN(C)CCc2ccc(OC)c(OC)c2)c(C2(SC)Sc3ccccc3N(C)C2=O)c1 (centres unmarked) [compound 131, 3,4-Dihydro-2-[5-methoxy-2-[3-(N-methyl-3,4-dimethoxyphenethylamino)propoxy]phenyl]-4-methyl-2-methylthio-3-oxo-2H-1,4-benzothiazine hydrochloride]	630 nM
COc1ccc(OCCCCN(C)CCc2cc(OC)c(OC)c(OC)c2)c(C2(SC)Sc3ccccc3N(C)C2=O)c1 (centres unmarked) [compound 142, 3,4-Dihydro-2-[5-methoxy-2-[4-(N-methyl-3,4,5-trimethoxyphenethylamino)butoxy]phenyl]-4-methyl-2-methylthio-3-oxo-2H-1,4-benzothiazine hydrochloride]	630 nM
COc1ccc(OCCCN(C)CCOc2ccc3c(c2)OCO3)c(C2(OC)Sc3ccccc3N(C)C2=O)c1 (centres unmarked) [compound 147, 3,4-Dihydro-2-methoxy-2-[5-methoxy-2-[3-[N-methyl-2-(3,4-methylenedioxyphenoxy)ethylamino]propoxy]phenyl]-4-methyl-3-oxo-2H-1,4-benzothiazine hydrochloride]	420 nM
COc1ccc(OCCCCN(C)CCOc2ccc3c(c2)OCO3)c(C2(OC)Sc3ccccc3N(C)C2=O)c1 (centres unmarked) [compound 148, 3,4-Dihydro-2-methoxy-2-[5-methoxy-2-[4-[N-methyl-2-(3,4-methylenedioxyphenoxy)ethylamino]butoxy]phenyl]-4-methyl-3-oxo-2H-1,4-benzothiazine hydrochloride]	380 nM
COc1ccc(OCCCCN(C)CCOc2ccc3c(c2)OCO3)c(C2(SC)Sc3ccccc3N(C)C2=O)c1 (centres unmarked) [compound 150, 3,4-Dihydro-2-[5-methoxy-2-[4-[N-methyl-2-(3,4-methylenedioxyphenoxy)ethylamino]butoxy]phenyl]-4-methyl-2-methylthio-3-oxo-2H-1,4-benzothiazine hydrochloride hemihydrate]	890 nM
